Experimental data: patent US7595337B2, “Mitotic kinesin inhibitors” (Merck & Co. Inc., priority 2005, dated 2009)
pIC50: −log10 of the molar value.

Target: T1, human poly-histidine tagged KSP motor domain (KSP(367H)) (Homo sapiens, UniProt P52732)
T1 construct: were used to amplify the motor domain and the neck linker region; made in house; host or cells: E. coli BL21 (DE3), pRSETa
T1 sequence (P52732 18-359 limits assumed): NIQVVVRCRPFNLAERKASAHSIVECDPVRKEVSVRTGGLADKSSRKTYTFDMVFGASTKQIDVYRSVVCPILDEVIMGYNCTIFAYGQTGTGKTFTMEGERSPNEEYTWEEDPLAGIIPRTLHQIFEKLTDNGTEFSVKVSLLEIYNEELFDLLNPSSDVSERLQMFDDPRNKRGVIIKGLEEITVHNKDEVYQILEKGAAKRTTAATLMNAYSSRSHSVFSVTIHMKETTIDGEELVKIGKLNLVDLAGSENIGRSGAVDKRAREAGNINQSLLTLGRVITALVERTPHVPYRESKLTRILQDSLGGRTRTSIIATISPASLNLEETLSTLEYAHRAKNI
Assay: Kinesin ATPase In Vitro Assay
Assay type: biochemical
Conditions: for pIC50: microtubules, 1 mM ATP, 23° C., quinaldine red/ammonium molybdate phosphate readout
From the text: I. Kinesin ATPase In Vitro Assay
Cloning and expression of human poly-histidine tagged KSP motor domain (KSP(367H)): Plasmids for the expression of the human KSP motor domain construct were cloned by PCR using a pBluescript full length human KSP construct (Blangy et al., Cell, vol. 83, pp 1159-1169, 1995) as a template. The N-terminal primer 5′-[…] (SEQ. ID. NO.: 1) and the C-terminal primer 5′-[…] […] (SEQ. ID. NO.: 2)
were used to amplify the motor domain and the neck linker region. The PCR products were digested with AseI and XhoI, ligated into the NdeI/XhoI digestion product of pRSETa (Invitrogen) and transformed into E. coli BL21 (DE3).
Cells were grown at 37° C. to an OD600 of 0.5. After cooling the culture to room temperature expression of KSP was induced with 100 μM IPTG and incubation was continued overnight. Cells were pelleted by centrifugation and washed once with ice-cold PBS. Pellets were flash-frozen and stored −80° C.
Protein Purification: Cell pellets were thawed on ice and resuspended in lysis buffer (50 mM K-HEPES, pH 8.0, 250 mM KCl, 0.1% Tween, 10 mM imidazole, 0.5 mM Mg-ATP, 1 mM PMSF, 2 mM benzimidine, 1× complete protease inhibitor cocktail (Roche)). Cell suspensions were incubated with 1 mg/ml lysozyme and 5 mM β-mercaptoethanol on ice for 10 minutes, followed by sonication (3×30 sec). All subsequent procedures were performed at 4° C. Lysates were centrifuged at 40,000×g for 40 minutes. Supernatants were diluted and loaded onto an SP Sepharose column (Pharmacia, 5 ml cartridge) in buffer A (50 mM K-HEPES, pH 6.8, 1 mM MgCl2, 1 mM EGTA, 10 μM Mg-ATP, 1 mM DTT) and eluted with a 0 to 750 mM KCl gradient in buffer A. Fractions containing KSP were pooled and incubated with Ni-NTA resin (Qiagen) for one hour. The resin was washed three times with buffer B (Lysis buffer minus PMSF and protease inhibitor cocktail), followed by three 15-minute incubations and washes with buffer B. Finally, the resin was incubated and washed for 15 minutes three times with buffer C (same as buffer B except for pH 6.0) and poured into a column. KSP was eluted with elution buffer (identical to buffer B except for 150 mM KCl and 250 mM imidazole). KSP-containing fractions were pooled, made 10% in sucrose, and stored at −80° C.
Microtubules are prepared from tubulin isolated from bovine brain. Purified tubulin (>97% MAP-free) at 1 mg/ml is polymerized at 37° C. in the presence of 10 μM paclitaxel, 1 mM DTT, 1 mM GTP in BRB80 buffer (80 mM K-PIPES, 1 mM EGTA, 1 mM MgCl2 at pH 6.8). The resulting microtubules are separated from non-polymerized tubulin by ultracentrifugation and removal of the supernatant. The pellet, containing the microtubules, is gently resuspended in 10 μM paclitaxel, 1 mM DTT, 50 μg/ml ampicillin, and 5 μg/ml chloramphenicol in BRB80.
The kinesin motor domain is incubated with microtubules, 1 mM ATP (1:1 MgCl2: Na-ATP), and compound at 23° C. in buffer containing 80 mM K-HEPES (pH 7.0), 1 mM EGTA, 1 mM DTT, 1 mM MgCl2, and 50 mM KCl. The reaction is terminated by a 2-10 fold dilution with a final buffer composition of 80 mM HEPES and 50 mM EDTA. Free phosphate from the ATP hydrolysis reaction is measured via a quinaldine red/ammonium molybdate assay by adding 150 μl of quench C buffer containing a 2:1 ratio of quench A:quench B. Quench A contains 0.1 mg/ml quinaldine red and 0.14% polyvinyl alcohol; quench B contains 12.3 mM ammonium molybdate tetrahydrate in 1.15 M sulfuric acid. The reaction is incubated for 10 minutes at 23° C., and the absorbance of the phosphomolybdate complex is measured at 540 nm.

**Q.** How did the pIC50 turn out when `CC(=O)N1N=C2c3cc(F)ccc3OCC2C1(C)c1ccccc1` (mixture of isomers) [Compound 2-2, 2-acetyl-8-fluoro-3-methyl-3-phenyl-2,3,3a,4-tetrahydrochromeno[4,3-c]pyrazole] was run?
**A.** The pIC50 was no less than 4.52.

**Q.** What does the source list for `CC(=O)N1CCN(CCC[C@@]2(c3ccccc3)[C@@H]3COc4ccc(F)cc4C3=NN2C(C)=O)CC1` (single isomer, unassigned) [Compound 5-5]?
**A.** activity of resolved enantiomer (active / inactive) (assay not named): active; pIC50: ≥ 4.52

**Q.** How did the pIC50 turn out when `CN(C)CCCC1(c2ccccc2)C2COc3ccc(F)cc3C2=NN1C(=O)C(F)(F)F` (centres unmarked) [Compound 3-10, {3-[8-fluoro-3-phenyl-2-(trifluoroacetyl)-2,3,3a,4-tetrahydrochromeno[4,3-c]pyrazol-3-yl]propyl}dimethylamine] was run?
**A.** The pIC50 was no less than 4.52.

**Q.** `CC(=O)N1N=C2c3cc(F)ccc3OC[C@H]2[C@H]1c1ccccc1` [Compound 1-3, (3S,3aS)-2-acetyl-8-fluoro-3-phenyl-2,3,3a,4-tetrahydrochromeno[4,3-c]pyrazole] was tested. Which “activity of resolved enantiomer (active / inactive)” value (assay not named) did it give?
**A.** The value was “active”.

**Q.** And the pIC50?
**A.** The pIC50 was no less than 4.52.

**Q.** How did the pIC50 turn out when `CC(=O)N1CCN(CCCC2(c3ccccc3)C3COc4ccc(F)cc4C3=NN2C(=O)C(F)(F)F)CC1` (centres unmarked) [Compound 3-8, 3-[3-(4-acetylpiperazin-1-yl)propyl]-8-fluoro-3-phenyl-2-(trifluoroacetyl)-2,3,3a,4-tetrahydrochromeno[4,3-c]pyrazole] was run?
**A.** The pIC50 was no less than 4.52.

**Q.** `CC(=O)N1CCN(CCC[C@@]2(c3ccccc3)[C@H]3COc4ccc(F)cc4C3=NN2C(C)=O)CC1` (relative stereo) [Compound 4-1, cis-2-acetyl-3-[3-(4-acetylpiperazin-1-yl)propyl]-8-fluoro-3-phenyl-2,3,3a,4-tetrahydrochromeno[4,3-c]pyrazole] was tested. Which pIC50 did it give?
**A.** The pIC50 was no less than 4.52.

**Q.** Which results are given for `CC(=O)N1N=C2c3cc(F)ccc3OCC2C1c1ccccc1` (centres unmarked) [Compound 1-2, 2-acetyl-8-fluoro-3-phenyl-2,3,3a,4-tetrahydrochromeno[4,3-c]pyrazole]?
**A.** pIC50: ≥ 4.52; relative inhibitory activity of the diastereomers (the cis diastereomer (eluted second) compared with the other, assay not named): higher inhibitory activity

**Q.** With `O=C(N1N=C2c3cc(F)ccc3OCC2C1(CCCO)c1ccccc1)C(F)(F)F` (centres unmarked) [Compound 3-7, 3-[8-fluoro-3-phenyl-2-(trifluoroacetyl)-2,3,3a,4-tetrahydrochromeno[4,3-c]pyrazol-3-yl]propan-1-ol] as the molecule, how does the pIC50 read?
**A.** The pIC50 was no less than 4.52.

**Q.** How did the pIC50 turn out when `CC(=O)N1N=C2c3cc(F)ccc3OCC2C1(CCC1OCCCO1)c1ccccc1` (mixture of isomers) [Compound 5-4, 2-acetyl-3-[2-(1,3-dioxan-2-yl)ethyl]-8-fluoro-3-phenyl-2,3,3a,4-tetrahydrochromeno[4,3-c]pyrazole] was run?
**A.** Its pIC50 is no less than 4.52.

**Q.** How did the “activity of resolved enantiomer (active / inactive)” value (assay not named) turn out when `CC(=O)N1CCN(CCC[C@@]2(c3ccccc3)[C@@H]3COc4ccc(F)cc4C3=NN2C(=O)C(F)(F)F)CC1` [Compound 3-9, (3S,3aS)-3-[3-(4-acetylpiperazin-1-yl)propyl]-8-fluoro-3-phenyl-2-(trifluoroacetyl)-2,3,3a,4-tetrahydrochromeno[4,3-c]pyrazole] was run?
**A.** Its value is “active”.

**Q.** What about the pIC50 of the same molecule?
**A.** The pIC50 was no less than 4.52.

**Q.** With `O=C(N1N=C2c3cc(F)ccc3OCC2C1(CCCN1CCOCC1)c1ccccc1)C(F)(F)F` (centres unmarked) [Compound 3-11, 8-fluoro-3-(3-morpholin-4-ylpropyl)-3-phenyl-2-(trifluoroacetyl)-2,3,3a,4-tetrahydrochromeno[4,3-c]pyrazole] as the molecule, how does the pIC50 read?
**A.** The pIC50 was no less than 4.52.

**Q.** What does the source list for `CC(=O)N1CCN(CCC[C@@]2(c3ccccc3)[C@H]3COc4ccc(F)cc4C3=NN2C(C)=O)CC1` (single isomer, unassigned) [Compound 5-6]?
**A.** activity of resolved enantiomer (active / inactive) (assay not named): active; pIC50: ≥ 4.52
